# In patent publication US20230109839A1, “THERAPEUTIC AGENT FOR TAUOPATHIES” (SUMITOMO PHARMA CO., LTD., priority 2020, published 2023):
# Entries after “also recorded” stand apart in the source; their conditions may differ. Read-outs that look alike come from different tables or passages of the source.
# Legend:
# [1] = tested on: phosphorylated tau oligomer; test: Evaluation of phosphorylated tau oligomers in brain of APP-Tg mice, Western blotting (Test 4); type: in vivo, mouse; conditions: for Reducing effect of phosphorylated tau oligomer: 7-10 days, with ABT 1 mg/g-food
# Procedure: Test 4: Evaluation of Phosphorylated Tau Oligomers Using APP-Tg Mice
# This test is a test to quantify the oligomer of phosphorylated tau in the brain to evaluate the action of a compound. […] The APP-Tg mice used herein were prepared by the method described in Test 3.
# The test compound administered with food to APP-Tg mice for 7-10 days. At this time, in order to increase the blood concentration of the test compound, ABT was used in combination with a mixed diet of 1 mg/g-food depending on the compound. After the administration, the brain was collected, and the protein is extracted from the collected brain using TBS (Tris Buffered Saline) or sarcosyl, and then SDS-PAGE (sodium dodecyl sulfate-polyacrylamide gel electrophoresis) of the soluble or insoluble fraction was performed. After that, Western blotting was performed using an anti-oligomerized tau antibody (Anti-Tau, oligomeric, clone TOMA-1), and the effect of the test compound was evaluated by quantifying the band amount of the phosphorylated tau oligomer.
# The reducing effect of phosphorylated tau oligomer was calculated by the following formula, and from the calculated values, the results were defined as follows: 0-25%: +, 25-50%: ++, 50-75%: +++, and 75-100%: ++++. The significant difference from the vehicle-administered group was determined using the Student t-test. For the band amount, the value corrected by the β-actin band amount was used.
# Reducing effect of phosphorylated tau oligomer={(band amount of oligomerized tau in vehicle-administered group−band amount of oligomerized tau in test compound-administered group)/band amount of oligomerized tau in vehicle-administered group}×100
# human Nav1.1 = molecular target: T1, human Nav1.1 (Homo sapiens, UniProt P35498); test: Amplification of Nav1.1-derived voltage-gated sodium current (Nav1.1 current), automated patch clamp (Test 1); type: cell-based; conditions: for activation at 10 µM: HEK293, concentration for evaluation 10 μM
# T1 construct: host or cells: HEK293
# How it was run: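 HEK293 cells stably expressing human Nav1.1, restricted to cells with >500 pA current, were recorded by automated voltage-clamp patch clamp with a ramp voltage stimulus. Compounds were applied in HEPES-buffered extracellular solution with 1% DMSO. Amplification (%) = 100×(peak or AUC after/before compound)−100.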
# APP-Tg mouse = test: Evaluation of the cognitive function by novel object recognition test (NORT) in APP-Tg mice (Test 3); type: in vivo; parameters: key to Discrimination index: (novel − known search time)/(novel + known search time); conditions: for improvement of cognitive function (NORT) / improvement of cognitive function (NORT), summary of the above results: APP-Tg mice; for improvement of cognitive function (NORT): Elacridar orally 100 mg/kg 2 hours before, test compound intraperitoneally 30 minutes before the first trial run; for improvement of cognitive function (NORT), summary of the above results: alone, with Elacridar or with ABT depending on the compound; for Discrimination index: APP-Tg mouse, with Elacridar 100 mg/kg orally 2 hours before first trial run
# Procedure: Test 3: Evaluation of the Cognitive Function by Novel Object Recognition Test (Hereinafter, Also Referred to as “NORT”)
# The present test is for evaluating the improvement of cognitive function with the test compounds. When an APP-Tg mouse which is an AD (Alzheimer's disease) model mouse is evaluated by NORT, the memory for a familiar object decreases depending on the time interval between the first trial run (training) and the second trial run (test). For example, if the first trial run is done and 3 hours later the second one is done, there is no difference in the searching times between novel object and known object for the APP-Tg mouse, compared with a healthy mouse. Thus, the APP-Tg mouse suffers from significant amnesia.
# The APP-Tg mouse used herein was prepared by constructing an expression cassette linked to human APP751 isoform to which Swedish (K670N/M671L) and Indiana (V717F) mutation were introduced at downstream of mouse Thy-1 promoter, then injecting the expression cassette into a mouse fertilized egg, and transplanting it to a host mouse. The prepared mouse presents with intracerebral AB accumulation and cognitive dysfunction from early on, and thus the mouse can be used for the evaluation of cognitive function. APP-Tg mouse has been also reported in Non-patent literature 6.
# To the prepared APP-Tg mouse, the test compound was administered, and then the first trial run was done for the mouse 30 minutes after the intraperitoneal administration or after 10 days of mixed diet administration. The second trial run was done 3 hours after the first trial run, and the searching times between novel object and known object in the second trial were evaluated. The discrimination index was calculated from the searching time for novel object and known object in the second trial run, and the improvement of cognitive function of the test compound was confirmed by comparing the discrimination index with the test compound-unadministered group as an index of the cognitive function. The discrimination index was calculated by the following formula.
# Discrimination index={(Searching time for novel object)−(Searching time for known object)}/{(Searching time for novel object)+(Searching time for known object)}
# The present test can be also done with a combination with Elacridar (Tokyo Chemical Industry Co., Ltd.). Elacridar can inhibit P-gp and BCRP which are excretion transporters expressed in the blood-brain barrier and thereby Elacridar has the effect of improving the transferability of the test compound to the brain. Eracridal was orally administered to APP-Tg mice at 100 mg/kg 2 hours before the first trial run, and then the test compound was intraperitoneally administered to the mice 30 minutes before the first trial run according to the above method. And, the improvement of cognitive function was evaluated. The significant difference from the vehicle-administered group was determined using the parametric Dunnett multiple comparison test.
# And, the present test can be also done with a combination with ABT (1-aminobenzotriazole) (Tokyo Chemical Industry Co., Ltd.). ABT has the effect of improving the blood concentration of the test compound by inhibiting CYP and suppressing metabolism. The test compound and ABT (1 mg/g-food) were administered with food to APP-Tg mice for 10 days, and then the improvement of cognitive function was evaluated according to the above method. The significant difference from the vehicle-administered group was determined using the parametric Dunnett multiple comparison test.
# [2] = HEK293, Concentration for evaluation 1 μM, HEK293 cell line stably expressing human Nav1.1, read-out: Nav1.1 current amplification rate (%)
# [3] = concentration for evaluation 1 μM, HEK293 stably expressing human Nav1.1
# [4] = concentration for evaluation 50 μM, HEK293 stably expressing human Nav1.1
# [5] = HEK293, concentration for evaluation 1 μM, HEK293 stably expressing human Nav1.1, read-out: Nav1.1 current amplification rate (%)
# [6] = HEK293 stably expressing human Nav1.1, read-out: Nav1.1 current amplification rate (%)
Nav1.1 current amplification rate (%) (human Nav1.1; [3]),activation at 1 µM (human Nav1.1; [5]) [%],SMILES,also measured
–,–,"CN(c1ccc(=O)n(CC(=O)N2CCc3c(N4CCOCC4)cccc32)n1)C1CCCC1 [Example 565, 6-[cyclopentyl(methyl)amino]-2-{2-[4-(morpholin-4-yl)-2,3-dihydro-1H-indol-1-yl]-2-oxoethyl}pyridazin-3(2H)-one]","Reducing effect of phosphorylated tau oligomer ([1]; dose 0.5 mg/g-food): +++ (50-75%: +++); Reducing effect of phosphorylated tau oligomer ([1]; dose 4.5 mg/g-food): ++ (25-50%: ++); reducing effect of tau oligomer ([1]; with food for 7-10 days, ABT 1 mg/g-food depending on the compound, brain, anti-oligomerized tau antibody TOMA-1): some reducing effect of tau oligomer; also recorded: strong reducing effect of tau oligomer"
–,–,"CN(c1cnc2cnn(CC(=O)Nc3ccn4ncnc4c3)c2n1)C1CCCC1 [Example 593, 2-{6-[cyclopentyl(methyl)amino]-1H-pyrazolo[3,4-b]pyrazin-1-yl}-N-([1,2,4]triazolo[1,5-a]pyridin-7-yl)acetamide]","activation at 1 µM (human Nav1.1; [2]): 78%; improvement of cognitive function (NORT) (APP-Tg mouse): some improvement of cognitive function; improvement of cognitive function (NORT), summary of the above results (APP-Tg mouse): some improvement of cognitive function; Discrimination index (APP-Tg mouse; dose 60 (mg/g i.p.)): 0.20; Discrimination index (APP-Tg mouse): 0.11"
–,–,"O=C(Cn1ncc2ncc(N3CCC4(CC4)C(F)(F)C3)nc21)Nc1ccn2ncnc2c1 [Example 609, 2-[6-(4,4-difluoro-6-azaspiro[2.5]octan-6-yl)-1H-pyrazolo[3,4-b]pyrazin-1-yl]-N-([1,2,4]triazolo[1,5-a]pyridin-7-yl)acetamide]","activation at 1 µM (human Nav1.1; [2]): 84%; improvement of cognitive function (NORT) (APP-Tg mouse; 100 mg/kg): some improvement of cognitive function; also recorded: strong improvement of cognitive function; improvement of cognitive function (NORT), summary of the above results (APP-Tg mouse): some improvement of cognitive function; Discrimination index (APP-Tg mouse; dose 60 (mg/g i.p.)): 0.29; Discrimination index (APP-Tg mouse): 0.29"
19,–,O=C(Cn1ncc2ccc(C3=CCCCO3)nc21)Nc1ccn2ccnc2c1 [Example 868],–
17,–,O=C(Cn1ncc2ccc(C3=COCCC3)nc21)Nc1ccn2ccnc2c1 [Example 869],–
120,–,CC1CCN(c2ccc3cnn(CC(=O)Nc4ccn5ccnc5c4)c3n2)CC1 [Example 870],–
10,–,O=C(Cn1ncc2ccc(-c3ccc(F)cc3F)nc21)Nc1ccc2ncnn2c1 [Example 871],–
38,–,CC1CCN(c2ccc3cnn(CC(=O)Nc4ccc5ncnn5c4)c3n2)CC1 [Example 872],–
89,–,CN(CC1CCC1)c1ccc2cnn(CC(=O)Nc3ccc4ncnn4c3)c2n1 [Example 873],–
43,–,CN(c1ccc2cnn(CC(=O)Nc3ccc4ncnn4c3)c2n1)C1CCCC1 [Example 875],–
98,–,CC1CCN(c2ccc3cnn(CC(=O)Nc4ccc5ocnc5c4)c3n2)CC1 [Example 876],–
263,–,CC1CCN(c2ccc3cnn(CC(=O)Nc4ccc5cncnc5c4)c3n2)CC1 [Example 877],–
42,–,CC1CCN(c2ccc3cnn(CC(=O)Nc4ccc5cnnn5c4)c3n2)CC1 [Example 878],–
–,–,CC1CCN(c2ccc3cnn(CC(=O)Nc4ccc(C(F)(F)F)nc4)c3n2)CC1 [Example 879],Nav1.1 current amplification rate (%) (human Nav1.1; [4]): 16%
–,–,CC1CCN(c2ccc3cnn(CC(=O)Nc4ccc5nccn5n4)c3n2)CC1 [Example 880],Nav1.1 current amplification rate (%) (human Nav1.1; [4]): 42%
–,446,CC1CC=C(c2ccc3cnn(CC(=O)N4CCN(c5cccnc5)CC4)c3n2)CC1 (centres unmarked) [Example 881],–

Nav1.1 current amplification rate (%) (human Nav1.1; [3]),activation at 1 µM (human Nav1.1; [5]) [%],SMILES,also measured
–,88,CC1CC=C(c2ccc3cnn(CC(=O)N4CCc5c(N6CCOCC6)cccc54)c3n2)CC1 (centres unmarked) [Example 882],–
–,164,CC1CC=C(c2ccc3cnn(CC(=O)Nc4ccc5ocnc5c4)c3n2)CC1 (centres unmarked) [Example 883],–
–,34,O=C(Cn1ncc2ccc(-c3ccc(F)cc3F)nc21)Nc1ccc2ocnc2c1 [Example 884],–
–,209,O=C(Cn1ncc2cnc(N3CCC4(CCC4)CC3)nc21)NC1=CC2N=CN=CC2C=C1 (centres unmarked) [Example 885],–
–,125,Cc1cc(NC(=O)Cn2ncc3ccc(N(C)C4CC4)nc32)cc2ncnn12 [Example 886],–
–,–,CN(c1ccc2cnn(CC(=O)N3CCc4c(C5CC5)cccc43)c2n1)C1CC1 [Example 887],"activation at 0.3 µM (human Nav1.1; HEK293, concentration for evaluation 0.3 μM, HEK293 stably expressing human Nav1.1, read-out: Nav1.1 current amplification rate (%)): 173%"
–,101,CN(c1ccc2cnn(CC(=O)Nc3cnc4cccnc4c3)c2n1)C1CC1 [Example 888],–
–,151,CN(CC1CCC1)c1ccc2cnn(CC(=O)Nc3cnc4cccnc4c3)c2n1 [Example 889],–
–,68,N#Cc1ccc(NC(=O)Cn2ncc3ccc(N4CCC5(CC5)C(F)(F)C4)nc32)cn1 [Example 890],–
–,81,CN(c1ccc2cnn(CC(=O)Nc3cnc4cccnc4c3)c2n1)C1CCCC1 [Example 891],–
–,39,CN(c1ccc2cnn(CC(=O)Nc3ccc4ncncc4c3)c2n1)C1CCCC1 [Example 892],–
–,–,CC1CC=C(c2ccc3cnn(CC(=O)N4CCN(c5cccnc5)CC4)c3c2)CC1 (centres unmarked) [Example 893],activation at 10 µM (human Nav1.1; [6]): 31%
–,–,CC1CC=C(c2ccc3cnn(CC(=O)Nc4ccn5ccnc5c4)c3c2)CC1 (centres unmarked) [Example 894],activation at 10 µM (human Nav1.1; [6]): 151%
–,244,"CC1CC=C(c2cnc3cnn(CC(=O)Nc4ccn5ncnc5c4)c3n2)CC1 (centres unmarked) [Example 895, 2-[6-(4-methylcyclohex-1-en-1-yl)-1H-pyrazolo[3,4-b]pyrazin-1-yl]-N-([1,2,4]triazolo[1,5-a]pyridin-7-yl)acetamide]",–
241,–,"CC1CC=C(c2cnc3cnn(CC(=O)Nc4ccn5ncnc5c4)c3n2)CC1 (centres unmarked) [Example 896, 2-[6-(4-methylcyclohex-1-en-1-yl)-1H-pyrazolo[3,4-b]pyrazin-1-yl]-N-([1,2,4]triazolo[1,5-a]pyridin-7-yl)acetamide]",–
